Laboratory results reported in PMC10127945 (Nature chemical biology, 2022).

Legend:
[1] = system: SARS-CoV-2; assay type: cell-based, SARS-CoV-2 (USA-WA1/2020)
[2] = molecular target: SARS-CoV-2 envelope (E) protein viroporin ion channel (Severe acute respiratory syndrome coronavirus 2, UniProt P0DTC4); assay type: cell-based
[3] = molecular target: ACE2 (Homo sapiens, UniProt Q9BYF1); assay: Biotin-switch assay for SNO-ACE2 in HeLa-ACE2 cells; assay type: cell-based; details: 100 μM SNOC
[4] = molecular target: TMPRSS2 (Homo sapiens, UniProt O15393); assay: Biotin-switch assay for SNO-TMPRSS2; assay type: cell-based; details: 100 μM SNOC, 20 minutes, HeLa-ACE2 cells
[5] = molecular target: SARS-CoV-2 Spike protein (Severe acute respiratory syndrome coronavirus 2, UniProt P0DTC2); assay type: biochemical
[6] = molecular target: ACE2/SARS-CoV-2 Spike protein binding (Homo sapiens, UniProt Q9BYF1); assay type: cell-based
[7] = Stability in aqueous solution; assay type: physicochemical; details: neutral pH

Chain of ACE2 (Q9BYF1 18-805): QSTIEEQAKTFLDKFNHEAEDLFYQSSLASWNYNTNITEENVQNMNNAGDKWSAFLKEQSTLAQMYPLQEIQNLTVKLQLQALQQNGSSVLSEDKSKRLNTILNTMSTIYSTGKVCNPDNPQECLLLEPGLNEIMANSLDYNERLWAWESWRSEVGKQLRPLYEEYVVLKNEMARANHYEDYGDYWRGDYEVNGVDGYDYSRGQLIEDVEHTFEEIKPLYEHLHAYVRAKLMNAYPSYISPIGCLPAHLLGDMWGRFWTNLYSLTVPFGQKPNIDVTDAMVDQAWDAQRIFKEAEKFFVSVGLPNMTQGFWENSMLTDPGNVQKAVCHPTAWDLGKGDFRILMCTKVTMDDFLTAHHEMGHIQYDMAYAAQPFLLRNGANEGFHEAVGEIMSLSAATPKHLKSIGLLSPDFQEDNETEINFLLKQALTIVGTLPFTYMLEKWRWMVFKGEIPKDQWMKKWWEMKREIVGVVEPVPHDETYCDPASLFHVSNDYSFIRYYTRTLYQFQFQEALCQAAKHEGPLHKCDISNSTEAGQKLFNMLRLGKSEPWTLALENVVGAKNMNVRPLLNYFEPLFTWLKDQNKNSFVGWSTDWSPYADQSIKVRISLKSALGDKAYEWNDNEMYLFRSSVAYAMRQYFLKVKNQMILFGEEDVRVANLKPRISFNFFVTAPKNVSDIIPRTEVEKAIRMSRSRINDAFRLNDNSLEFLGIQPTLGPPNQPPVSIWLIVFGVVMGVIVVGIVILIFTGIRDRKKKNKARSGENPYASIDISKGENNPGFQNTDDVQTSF
Chain of ACE2/SARS-CoV-2 Spike protein binding (Q9BYF1 18-805 limits assumed): as the sequence (Q9BYF1 18-805) above
Chain of TMPRSS2 (O15393 whole entry): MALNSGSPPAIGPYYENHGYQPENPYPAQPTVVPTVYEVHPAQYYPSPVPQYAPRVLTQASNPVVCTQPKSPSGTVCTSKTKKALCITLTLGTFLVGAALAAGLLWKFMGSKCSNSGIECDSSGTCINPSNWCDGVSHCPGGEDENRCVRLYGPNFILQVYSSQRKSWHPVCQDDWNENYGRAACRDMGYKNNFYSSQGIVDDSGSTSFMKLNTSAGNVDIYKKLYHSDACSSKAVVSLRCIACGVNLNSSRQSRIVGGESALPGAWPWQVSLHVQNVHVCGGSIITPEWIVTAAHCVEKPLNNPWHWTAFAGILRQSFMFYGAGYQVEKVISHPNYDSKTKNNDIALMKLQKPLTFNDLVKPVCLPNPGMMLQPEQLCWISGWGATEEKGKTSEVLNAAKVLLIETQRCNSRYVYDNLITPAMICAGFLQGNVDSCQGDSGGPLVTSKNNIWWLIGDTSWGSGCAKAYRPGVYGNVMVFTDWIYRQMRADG
Chain of SARS-CoV-2 envelope (E) protein viroporin ion channel (P0DTC4 whole entry): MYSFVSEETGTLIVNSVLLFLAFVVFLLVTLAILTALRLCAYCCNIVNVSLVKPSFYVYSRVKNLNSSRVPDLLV

Compound	efficacy against live SARS-CoV-2 infection [1]	inhibition of E protein voltage-dependent K+ current [2]	stability (persistence) of SNO-ACE2 formation [3]	S-nitrosylation of ACE2 ([3]; 20 minutes)	S-nitrosylation of TMPRSS2 [4]	S-nitrosylation of Spike protein [5]	binding of purified S protein to HeLa-ACE2 cells [6]	time for NO to dissipate [7] [min]
NC12CC3CC(CC(C3)C1)C2 [amantadine]	no efficacy	–	–	–	–	–	–	–
CC12CC3CC(C)(C1)CC(N)(C3)C2 [memantine]	no efficacy	inhibited	–	–	–	–	–	–
S-nitrosocysteine [SNOC]	–	–	at least 12 h	could be S-nitrosylated	could be S-nitrosylated	Lack of S-nitrosylation	significantly decreased binding	< 5
